This is an account of results in ChEMBL document CHEMBL4251570, “Synthesis and biological evaluation of a novel β-D-2'-deoxy-2'-α-fluoro-2'-β-C-(fluoromethyl)uridine phosphoramidate prodrug for the treatment of hepatitis C virus infection” (Eur J Med Chem, 2018).

SMILES strings stand for the structures. The source made the active and inactive calls. The calls are words filed in the database; no cut-off is given here.

In general, half-life refers to the time in which the quantity being followed falls by half. A higher half-life goes with slow loss. For orientation: EC50 means the concentration that produces a half-maximal response. One may read the EC90 as the concentration at which the effect reaches the 90% level. A word on the Cmax: it is the peak of the concentration-time curve. In general, Tmax refers to the time from dosing to the highest level. In general, CC50 refers to the concentration that lowers cell viability or growth by half. A low value points to greater toxicity to the cells.

Data set [1] can be described thus: Half life in human liver S9 fraction at 1 mg/ml incubated up to 120 mins at 37 degC by HPLC analysis. The class given is ADME, subcellular.
Data set [2] is described as follows: Half life in human plasma at 1 mg/ml incubated up to 24 hrs at 37 degC by HPLC analysis. The class given is ADME, cell-free.
The nature of data set [3]: Half life in Sprague-Dawley rat liver assessed as 1-((2R,3R,4R,5R)-3-fluoro-3-(fluoromethyl)-4-hydroxy-5-(hydroxymethyl)tetrahydrofuran-2-yl)pyrimidine-2,4(1H,3H)-dione triphosphate at 50 mg/kg administered via oral gavage by HPLC-MS/MS analysis. The format is ADME, organism-based. The conditions noted are these: in vivo.
Data set [4] relates to Mus musculus. Description: Acute toxicity in Kunming mouse assessed as induction of damage to liver at 2 to 4 g/kg, po administered as single dose measured after 15 days. The class given is organism-based. The conditions noted are these: in vivo, 360 h.
A short description of data set [5]: AUC (0 to t) in Sprague-Dawley rat liver assessed as 1-((2R,3R,4R,5R)-3-fluoro-3-(fluoromethyl)-4-hydroxy-5-(hydroxymethyl)tetrahydrofuran-2-yl)pyrimidine-2,4(1H,3H)-dione triphosphate at 50 mg/kg administered via oral gavage by HPLC-MS/MS analysis. The format is ADME, organism-based. The note with it: in vivo.
The subject of data set [6] is Hepatitis C virus. Description: Antiviral activity against Hepatitis C virus genotype 2a infected in human HuH7 cells after 48 hrs by luciferase reporter gene assay. The class given is functional, organism-based, Hepacivirus hominis. The conditions noted are these: Huh-7, 48 h.
The test system of data set [7] is Hepatitis C virus. Description: Antiviral activity against Hepatitis C virus genotype 1b infected in human HuH7 cells after 48 hrs by luciferase reporter gene assay. The class given is functional, organism-based, Hepacivirus hominis. The note with it: Huh-7, 48 h.
Data set [8] concerns Mus musculus. Description: Acute toxicity in Kunming mouse assessed as induction of damage to heart at 2 to 4 g/kg, po administered as single dose measured after 15 days. The note with it: in vivo, 360 h. The class given is organism-based.
The subject of data set [9] is Hepatitis C virus. Description: Antiviral activity against Hepatitis C virus JFH-1 infected in human HuH7 cells assessed as inhibition of viral RNA replication after 3 days by quantitative real-time RT-PCR analysis. The format is functional, organism-based. The note with it: for Activity: Hepacivirus hominis; for EC50 / EC90: JFH-1, Huh-7, 72 h. A general note: Real-time PCR tracks product formation cycle by cycle.

Data set [10] can be described thus: Cmax in Sprague-Dawley rat liver assessed as 1-((2R,3R,4R,5R)-3-fluoro-3-(fluoromethyl)-4-hydroxy-5-(hydroxymethyl)tetrahydrofuran-2-yl)pyrimidine-2,4(1H,3H)-dione triphosphate at 50 mg/kg administered via oral gavage by HPLC-MS/MS analysis. The format is ADME, organism-based. The arrangement: dose 50 mg/kg, route oral. The note with it: in vivo.
Data set [11] has as its system Mus musculus. Put plainly: Acute toxicity in Kunming mouse assessed as induction of induction of damage to lung at 2 to 4 g/kg, po administered as single dose measured after 15 days. The format is organism-based. The note with it: in vivo, 360 h.
The subject of data set [12] is Mus musculus. Put plainly: Acute toxicity in Kunming mouse assessed as induction of damage to spleen at 2 to 4 g/kg, po administered as single dose measured after 15 days. The class given is organism-based. The conditions noted are these: in vivo, 360 h.
Data set [13] is described as follows: Tmax in Sprague-Dawley rat liver assessed as 1-((2R,3R,4R,5R)-3-fluoro-3-(fluoromethyl)-4-hydroxy-5-(hydroxymethyl)tetrahydrofuran-2-yl)pyrimidine-2,4(1H,3H)-dione triphosphate at 50 mg/kg administered via oral gavage by HPLC-MS/MS analysis. The format is ADME, organism-based. The note with it: in vivo.
In data set [14] the test system is Hepatitis C virus. Put plainly: Antiviral activity against Hepatitis C virus genotype 1b expressing NS5B RNA dependent RNA polymerase S282T mutant infected in human HuH7 cells after 48 hrs by luciferase reporter gene assay. The format is functional, organism-based, Hepacivirus hominis. The conditions noted are these: Huh-7, 48 h. (In general: In a reporter assay the amount or activity of a reporter protein is the signal.)

Data set [15] concerns Mus musculus. Description: Acute toxicity in Kunming mouse assessed as induction of damage to kidney at 2 to 4 g/kg, po administered as single dose measured after 15 days. The format is organism-based. The note with it: in vivo, 360 h.
Data set [16] concerns Mus musculus. Description: Acute toxicity in Kunming mouse assessed as change in body weight at 2 to 4 g/kg, po administered as single dose measured after 15 days. The format is organism-based. The conditions noted are these: in vivo, 360 h.
The nature of data set [17]: Cytotoxicity against human HuH7 cells after 72 hrs by CellTiter 96 AQueous one solution cell proliferation assay. The format is cell-based, Huh-7.
For data set [18], the system named is Mus musculus. Description: Acute toxicity in Kunming mouse assessed as mortality at 2 to 4 g/kg, po administered as single dose measured after 15 days. The conditions noted are these: in vivo, 360 h. The class given is organism-based.
The nature of data set [19]: Half life in simulated gastric fluid at pH 1.2 at 1 mg/ml incubated up to 24 hrs at 37 degC by HPLC analysis. The class given is ADME.
Data set [20] concerns Hepatitis C virus. Description: Antiviral activity against Hepatitis C virus JFH-1 infected in human HuH7 cells assessed as inhibition of viral core protein levels at 1 uM by Western blot method. The class given is functional, organism-based. The note with it: Hepacivirus hominis.
Data set [21] concerns Hepatitis C virus. Description: Antiviral activity against Hepatitis C virus genotype 1a infected in human HuH7 cells after 48 hrs by luciferase reporter gene assay. The format is functional, organism-based, Hepacivirus hominis. The conditions noted are these: subtype 1a, Huh-7, 48 h.
Data set [22] can be described thus: AUC (0 to infinity) in Sprague-Dawley rat liver assessed as 1-((2R,3R,4R,5R)-3-fluoro-3-(fluoromethyl)-4-hydroxy-5-(hydroxymethyl)tetrahydrofuran-2-yl)pyrimidine-2,4(1H,3H)-dione triphosphate at 50 mg/kg administered via oral gavage by HPLC-MS/MS analysis. The format is ADME, organism-based. More on the design: dose 50 mg/kg, time infinity, route oral. The note with it: in vivo.

The subject of data set [23] is Mus musculus. Description: Acute toxicity in Kunming mouse assessed as induction of observable clinical toxic signs at 2 to 4 g/kg, po administered as single dose measured after 15 days. The format is organism-based. The conditions noted are these: in vivo, 360 h.
Data set [24] in a line: Half life in simulated intestinal fluid at pH 7.4 at 1 mg/ml incubated up to 24 hrs at 37 degC by HPLC analysis. The format is ADME.
A short description of data set [25]: Drug level in Sprague-Dawley rat liver treated with at 50 mg/kg, po 2-(((S)-(((2R,3R,4R,5R)-5-(2,4-dioxo-3,4-dihydropyrimidin-1(2H)-yl)-4-fluoro-4-(fluoromethyl)-3-hydroxytetrahydrofuran-2-yl)methoxy) (phenoxy)phosphoryl)amino) propanoate assessed as compound formation by HPLC-MS/MS analysis. The format is ADME, organism-based. The conditions noted are these: in vivo.

`CC(C)OC(=O)[C@H](C)N[P@](=O)(OC[C@H]1O[C@@H](n2ccc(=O)[nH]c2=O)[C@@](F)(CF)[C@@H]1O)Oc1ccccc1` had a half-life in [1] of 0.49 h. In addition, the half-life at 1 mg/ml is 17.3 h in [2], greater than 24 h in [19] and greater than 24 h in data set [24]. Moreover, the t1/2 in data set [3] worked out at 3.73 h. For the same compound, the Activity entry with Mus musculus [4] is “Non-Toxic”; in the data set with Mus musculus [8] it was “Non-Toxic”; in the data set on Hepatitis C virus [9], “Dose-dependent effect”; in the data set with Mus musculus [11] it was “Non-Toxic”; in the data set with Mus musculus [12], “Non-Toxic”; in the data set with Mus musculus [15], “Non-Toxic”. Further, the Activity entry in the data set on Mus musculus [16], with Mus musculus [18] and in the data set on Mus musculus [23] was “Non-Toxic” throughout. For the same compound, the AUCt in data set [5] was 14540 ng·h/g. In addition, the EC50 in the data set with Hepatitis C virus [6] was found to be 0.54 µM; with Hepatitis C virus [7], 0.24 µM; in the data set with Hepatitis C virus [9], 0.18 µM; in the data set with Hepatitis C virus [14], 1.13 µM; with Hepatitis C virus [21], 0.31 µM. Moreover, the EC90 in the data set with Hepatitis C virus [6] was 3.05 µM; in the data set with Hepatitis C virus [7], 0.5 µM; in the data set on Hepatitis C virus [9] it was 0.74 µM; with Hepatitis C virus [14] it was 7.7 µM; in the data set with Hepatitis C virus [21], 1.26 µM. The Cmax in [10] came to 1895 ng/g. Besides, the Tmax in data set [13] came to 5.83 h. This compound also gave a CC50 at 72 h in data set [17] greater than 1000 µM. The outcome in the data set with Hepatitis C virus [20] was Active. The AUC in [22] turned out to be 15655 ng·h/g.
For `O=c1ccn([C@@H]2O[C@H](COP(=O)(O)OP(=O)(O)OP(=O)(O)O)[C@@H](O)[C@]2(F)CF)c(=O)[nH]1`, in [25], the Drug metabolism result is recorded as “Metabolite_Detected”.
In data set [17], `O=c1ccn([C@@H]2O[C@H](CO)[C@@H](O)[C@]2(F)CF)c(=O)[nH]1` yielded a CC50 at 72 h greater than 1000 µM.
Turning to `CC(C)OC(=O)[C@H](C)N[P@](=O)(OC[C@H]1O[C@@H](n2ccc(=O)[nH]c2=O)[C@](C)(F)[C@@H]1O)Oc1ccccc1` [SOFOSBUVIR], in the data set with Hepatitis C virus [9], the Activity entry is “Dose-dependent effect”, the EC50 was determined as 0.27 µM and the EC90 worked out at 0.83 µM. The compound further registered a CC50 at 72 h in data set [17] greater than 1000 µM.
